Experimental data as given in ChEMBL document CHEMBL3120142 (J Med Chem, 2014).
Calls of active or inactive are those of the source. The calls are words filed in the database; no cut-off is given here.

Tested on: Influenza A virus
Type: functional, organism-based
Settings: A/Berlin/55/08(H1N1), MDCK

SMILES | Activity
CC(=O)N[C@H]1[C@H]([C@H](O)[C@H](O)CO)OC(C(=O)O)=C[C@@H]1NC(=N)N [ZANAMIVIR] | Active
CCC(CC)O[C@@H]1C=C(C(=O)O)C[C@H](N)[C@H]1NC(C)=O [OSELTAMIVIR CARBOXYLATE] | Active
